Assay results taken from ChEMBL document CHEMBL4229566, “Discovery of ( S)-3-(3-(3,5-Dimethyl-1 H-pyrazol-1-yl)phenyl)-4-(( R)-3-(2-(5,6,7,8-tetrahydro-1,8-naphthyridin-2-yl)ethyl)pyrrolidin-1-yl)butanoic Acid, a Nonpeptidic αvβ6 Integrin Inhibitor for the Inhaled Treatment of Idiopathic Pulmonary Fibrosis” (J Med Chem, 2018).

Experiments:
[1] = biological target: T1, Voltage-gated inwardly rectifying potassium channel KCNH2 (Homo sapiens, UniProt Q12809)
Description: Inhibition of human ERG expressed in HEK293 cells by Q-patch assay

[2] = physchem; conditions: buffer, pH 7.4, logD
[3] = Protein binding in human blood at 1 ug/ml after 4 hrs by LC-MS/MS analysis; assay type: ADME, tissue-based; conditions: at 1 µg/mL, read-out: PB (converted)
[4] = biological target: T1, Voltage-gated inwardly rectifying potassium channel KCNH2; remark: listed apart in the source
Description: (§1) Inhibition of human ERG expressed in HEK293 cells by Barracuda automated patch clamp assay

[5] = biological target: T1, Voltage-gated inwardly rectifying potassium channel KCNH2; conditions: HEK293 cells expressing hERG
Description: as §1

[6] = buffer, pH 7.4
[7] = biological target: T2, Integrin alpha-V/beta-6 (Homo sapiens, UniProt P06756+P18564)
Target sequence in this assay (P06756 31-889 limits assumed): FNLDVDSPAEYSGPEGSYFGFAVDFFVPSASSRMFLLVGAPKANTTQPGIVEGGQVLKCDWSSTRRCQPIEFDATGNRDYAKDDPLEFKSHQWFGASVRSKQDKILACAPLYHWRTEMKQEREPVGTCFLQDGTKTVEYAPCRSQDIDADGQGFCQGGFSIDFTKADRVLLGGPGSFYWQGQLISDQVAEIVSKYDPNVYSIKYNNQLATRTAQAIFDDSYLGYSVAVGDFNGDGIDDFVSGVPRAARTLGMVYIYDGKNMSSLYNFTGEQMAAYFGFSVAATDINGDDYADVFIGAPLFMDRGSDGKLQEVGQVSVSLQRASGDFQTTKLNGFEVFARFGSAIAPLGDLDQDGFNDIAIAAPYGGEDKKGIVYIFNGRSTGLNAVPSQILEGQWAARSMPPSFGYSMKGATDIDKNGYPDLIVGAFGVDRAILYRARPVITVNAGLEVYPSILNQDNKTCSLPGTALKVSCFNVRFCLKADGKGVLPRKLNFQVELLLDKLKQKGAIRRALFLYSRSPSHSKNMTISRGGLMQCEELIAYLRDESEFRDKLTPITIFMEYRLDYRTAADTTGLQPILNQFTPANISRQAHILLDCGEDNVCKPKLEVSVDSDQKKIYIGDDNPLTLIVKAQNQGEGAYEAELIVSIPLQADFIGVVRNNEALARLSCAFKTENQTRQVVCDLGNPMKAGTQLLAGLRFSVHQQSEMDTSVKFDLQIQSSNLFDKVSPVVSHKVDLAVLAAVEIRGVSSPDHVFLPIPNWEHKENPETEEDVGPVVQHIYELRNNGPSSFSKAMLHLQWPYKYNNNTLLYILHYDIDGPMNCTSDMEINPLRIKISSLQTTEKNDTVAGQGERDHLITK
Target sequence in this assay (P06756 891-1048 limits assumed): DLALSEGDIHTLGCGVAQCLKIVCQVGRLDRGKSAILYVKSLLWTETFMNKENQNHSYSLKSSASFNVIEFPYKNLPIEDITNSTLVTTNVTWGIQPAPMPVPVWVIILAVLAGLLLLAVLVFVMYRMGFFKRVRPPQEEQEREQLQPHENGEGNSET
Target sequence in this assay (P18564 22-788 limits assumed): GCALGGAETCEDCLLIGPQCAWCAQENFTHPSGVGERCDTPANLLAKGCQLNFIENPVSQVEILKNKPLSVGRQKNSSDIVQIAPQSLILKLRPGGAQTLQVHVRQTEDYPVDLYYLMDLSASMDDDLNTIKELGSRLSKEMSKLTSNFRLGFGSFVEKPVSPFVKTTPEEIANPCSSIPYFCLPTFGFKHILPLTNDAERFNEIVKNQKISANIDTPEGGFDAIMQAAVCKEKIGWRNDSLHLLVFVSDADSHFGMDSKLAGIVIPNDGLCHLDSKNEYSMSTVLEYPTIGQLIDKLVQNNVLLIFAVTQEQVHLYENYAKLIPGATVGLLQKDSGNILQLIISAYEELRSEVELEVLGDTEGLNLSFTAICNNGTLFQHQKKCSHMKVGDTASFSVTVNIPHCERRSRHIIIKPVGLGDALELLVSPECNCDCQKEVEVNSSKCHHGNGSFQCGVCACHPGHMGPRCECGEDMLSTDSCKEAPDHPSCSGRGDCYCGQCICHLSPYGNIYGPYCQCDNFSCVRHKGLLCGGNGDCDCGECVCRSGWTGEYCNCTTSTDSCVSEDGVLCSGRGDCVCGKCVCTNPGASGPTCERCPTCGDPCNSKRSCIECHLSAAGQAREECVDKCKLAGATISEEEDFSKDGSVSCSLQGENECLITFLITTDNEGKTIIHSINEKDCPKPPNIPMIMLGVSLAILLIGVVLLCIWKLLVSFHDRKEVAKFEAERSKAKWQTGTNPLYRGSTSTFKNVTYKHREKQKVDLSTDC

[8] = biological target: T2, Integrin alpha-V/beta-6; remark: listed apart in the source
Description: Binding affinity to human integrin alphaVbeta6 assessed as dissociation half life up to 48 hrs by liquid scintillation counting

T1 sequence (Q12809 whole entry): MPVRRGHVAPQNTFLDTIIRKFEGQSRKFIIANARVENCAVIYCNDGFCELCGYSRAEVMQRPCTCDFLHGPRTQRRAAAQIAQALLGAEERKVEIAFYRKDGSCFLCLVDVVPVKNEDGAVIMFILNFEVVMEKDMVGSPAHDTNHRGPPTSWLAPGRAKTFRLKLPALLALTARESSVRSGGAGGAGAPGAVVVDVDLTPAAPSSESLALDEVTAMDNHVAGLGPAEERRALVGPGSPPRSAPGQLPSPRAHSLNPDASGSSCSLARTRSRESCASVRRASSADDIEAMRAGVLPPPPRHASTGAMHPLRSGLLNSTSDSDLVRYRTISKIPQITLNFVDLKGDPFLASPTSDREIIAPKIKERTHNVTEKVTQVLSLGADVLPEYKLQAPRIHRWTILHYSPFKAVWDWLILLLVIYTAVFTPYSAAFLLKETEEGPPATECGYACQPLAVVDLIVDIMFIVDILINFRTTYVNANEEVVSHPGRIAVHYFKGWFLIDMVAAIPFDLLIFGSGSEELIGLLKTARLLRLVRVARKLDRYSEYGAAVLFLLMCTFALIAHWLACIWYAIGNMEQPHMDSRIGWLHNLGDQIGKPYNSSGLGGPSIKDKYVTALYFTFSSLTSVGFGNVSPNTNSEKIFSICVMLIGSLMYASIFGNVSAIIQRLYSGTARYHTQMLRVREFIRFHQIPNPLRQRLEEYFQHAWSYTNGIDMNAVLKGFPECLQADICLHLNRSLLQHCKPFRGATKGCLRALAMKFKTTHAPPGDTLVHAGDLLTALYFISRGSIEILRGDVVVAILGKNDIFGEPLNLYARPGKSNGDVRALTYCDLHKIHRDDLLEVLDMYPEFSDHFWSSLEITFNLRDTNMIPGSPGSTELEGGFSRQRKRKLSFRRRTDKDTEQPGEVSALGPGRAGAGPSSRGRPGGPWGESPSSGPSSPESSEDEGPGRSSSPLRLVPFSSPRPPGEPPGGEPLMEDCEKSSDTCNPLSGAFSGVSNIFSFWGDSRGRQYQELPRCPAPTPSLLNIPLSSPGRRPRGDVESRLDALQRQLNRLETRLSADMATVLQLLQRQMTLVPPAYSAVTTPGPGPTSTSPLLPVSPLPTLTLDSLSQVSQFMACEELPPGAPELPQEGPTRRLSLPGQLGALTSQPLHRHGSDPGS

Row | SMILES | IC50 [1] | logD [2] | IC50 [4] | other results
1 | Cc1nncn1-c1cccc([C@H](CC(=O)O)CN2CC[C@@H](CCc3ccc4c(n3)NCCC4)C2)c1 | > 31.6 µM | 1.77 | – | –
2 | O=C(O)C[C@H](CN1CC[C@@H](CCc2ccc3c(n2)NCCC3)C1)c1cccc(-n2cncn2)c1 | > 31.6 µM | 1.95 | > 50.1 µM | fraction unbound at 4 h, 1 ug/ml [3]: 0.4
3 | O=C(O)C[C@H](CN1CC[C@@H](CCc2ccc3c(n2)NCCC3)C1)c1cccc(Br)c1 | – | 3.15 | 1.26 µM | –
4 | O=C(O)C[C@H](CN1CC[C@@H](CCc2ccc3c(n2)NCCC3)C1)c1cccc(C2CCOC2)c1 (stereo in doubt; 28xI1) | 12.6 µM | 2.56 | 39.8 µM | –
5 | O=C(O)C[C@H](CN1CC[C@@H](CCc2ccc3c(n2)NCCC3)C1)c1cc(C2CC2)cc(N2CCOCC2)c1 | – | 3.07 | – | –
6 | Cc1cc(-c2cccc([C@H](CC(=O)O)CN3CC[C@@H](CCc4ccc5c(n4)NCCC5)C3)c2)[nH]n1 | 25.1 µM | 2.53 | > 50.1 µM | –
7 | Cc1cnn(C)c1-c1cccc([C@H](CC(=O)O)CN2CC[C@@H](CCc3ccc4c(n3)NCCC4)C2)c1 | – | 2.72 | – | –
8 | O=C(O)C[C@@H](CN1CC[C@@H](CCc2ccc3c(n2)NCCC3)C1)c1cccc(N2CCOCC2)c1 | – | 1.99 | – | –
9 | Cc1ccnn1-c1cccc([C@H](CC(=O)O)CN2CC[C@@H](CCc3ccc4c(n3)NCCC4)C2)c1 | – | – | – | fraction unbound at 4 h, 1 ug/ml [3]: 0.1
10 | O=C(O)C[C@H](CN1CC[C@@H](CCc2ccc3c(n2)NCCC3)C1)c1cccc(C2CCOC2)c1 (stereo in doubt; 28xI2) | 31.6 µM | – | – | fraction unbound at 4 h, 1 ug/ml [3]: 0.17; pIC50 [5]: 4.4; logD [6]: 2.58
11 | O=C(O)C[C@H](CN1CC[C@@H](CCc2ccc3c(n2)NCCC3)C1)c1cccc(N2CCOCC2)c1 | – | 2.27 | – | –
12 | N=C(N)Nc1cccc(C(=O)NCC(=O)NC(CC(=O)O)c2cc(Cl)cc(Cl)c2)c1 (configuration not stated) | – | – | – | Ki [7]: 0.002 µM; T1/2 [8]: 5 min
13 | Cc1cnn(-c2cccc([C@H](CC(=O)O)CN3CC[C@@H](CCc4ccc5c(n4)NCCC5)C3)c2)c1 | – | 3.01 | 10 µM | –
